Laboratory results reported in ChEMBL document CHEMBL4229402, “Kava analogues as agents for treatment of periodontal diseases: Synthesis and initial biological evaluation” (Bioorg Med Chem Lett, 2018).
Active and inactive are the calls of the source. No cut-off for these calls is given here.

Columns and labels:
BMDM [1] = assay: Antiperiodontic activity in mouse bone marrow macrophages assessed as reduction in Porphyromonas gingivalis-induced TNFalpha levels at 20 to 100 ug/ml after 4 hrs by ELISA; format: functional
BMDM [2] = assay: Antiperiodontic activity in mouse bone marrow macrophages assessed as reduction in Porphyromonas gingivalis-induced TNFalpha levels at 100 ug/ml after 4 hrs by ELISA; format: functional

Structure (SMILES): CCOC(=O)C1C(=O)C=C(OC(=O)c2ccccc2)CC1(C)C (configuration not stated)
- Activity (BMDM [1]): Active

Structure (SMILES): COC1=CC(=O)O[C@@H](/C=C/c2ccccc2)C1
- Activity (BMDM [2]): Active
